Assay results reported in PMC7731434, “Development and Validation of a Bioanalytical Method for 3′- and 6′-Sialyllactose in Minipig Liver and Kidney Using Liquid Chromatography-Tandem Mass Spectrometry and Its Application to Analysis of Tissue Distribution” (Molecules, 2020).
Like-named read-outs stand apart in the source and are kept apart here.

Key:
[1] = Tissue distribution study in minipigs after intravenous administration; type: in vivo, Yucatan minipigs; details: minipig; for T/P Ratio Kidney/Plasma / T/P Ratio Liver/Plasma / Kp at 2 h / concentration at 2 h: 2 h after intravenous administration of 12.5 mg/kg; for T/P Ratio Kidney/Plasma / T/P Ratio Liver/Plasma / Kp at 2 h: 12.5 mg/kg; for Kp at 2 h / concentration at 2 h: Yucatan; for Kp at 2 h: iv
Description: A tissue distribution study was conducted involving intravenous injection of minipigs with 3′-SL and 6′-SL at a dose of 12.5 mg/kg. Kidney, liver, and blood samples were collected. The tissue to plasma (T/P) ratio was also calculated from the concentrations of 3′-SL and 6′-SL in the kidney, liver, and plasma, from the same minipigs at the same time points.
The tissue distribution of 3′-SL and 6′-SL in Yucatan minipigs was assessed following intravenous administration at a dose of 12.5 mg/kg. The animal experiments were performed in compliance with the Animal Welfare Act and Guide for the Care and Use of Laboratory Animals of Institute for Laboratory Animal Research (ILAR). The animals were kept in a single cage at constant room temperature (23 ± 3 °C) and 30–70% humidity under a regular 12-h light/12-h dark cycle. Animals were provided with approximately 25 g/kg/day food and water was freely available.
Two minipigs were sacrificed at 2 h after administration; liver and kidney tissues, and blood from the jugular vein, were then collected. Each tissue was immediately removed and washed with normal saline, blotted dry with a paper towel, cut into pieces with scissors, and individually homogenized with three volumes of normal saline (v/w) in an Ultra-Turrax apparatus (IKA Works, Wilmington, NC, USA). After blood collection into K2-EDTA tubes, blood samples were gently mixed and placed on crushed wet-ice/Kryorack (Streck Laboratories, Omaha, NE, USA). Following centrifugation at 20,740 × g for 3 min at 4 °C for separation of plasma, the plasma was transferred into labeled polypropylene tubes.
The collected tissues were analyzed using the method developed in this study, and the plasma was analyzed by the method described in our previous study (in press).

[2] = Biological sample stability: benchtop (room temperature 4 h) and long-term (-80 °C, 34 days); type: physicochemical, minipig; details: for Benchtop and long-term stability, RE (%): -80 °C 34 days then room temperature 4 h, n = 3; for Benchtop and long-term stability values (RE), range: all QC samples of 3′-SL and 6′-SL pooled
Description: (§1) Benchtop and long-term stability were evaluated simultaneously. The benchtop stability test was carried out at room temperature (24 °C) for 4 h using samples with long-term stability, i.e., those stored at −80 °C for 34 days. […] The post-preparative stability (RE) of samples after 21 h of storage at 10 °C in an autosampler tray ranged from –3.1% to 8.7% for liver QC samples and −10.2% to 4.7% for kidney QC samples of 3′-SL and 6′-SL. To investigate freeze/thaw stability, QC samples were frozen at −80 °C and thawed at room temperature over four cycles. The stability of all QC samples of 3′-SL and 6′-SL ranged from −6.7% to 7.6% for the liver and −9.3% to −3.2% for the kidney. All stability results satisfied the acceptance criterion of ±15% of the nominal concentration.
(§2) The biological samples were evaluated for benchtop, freeze/thaw, post-preparative, and long-term stability. The stability tests were performed by measuring LQC and HQC samples with three replicates. The background concentration of SL in the blank authentic tissues was set to the nominal LQC concentration in the stability test. As the background concentration of SL in the authentic matrix is similar to or higher than the LQC (60 ng/g), the deviation of the background concentration of SL markedly affects the accuracy of LQC. The background concentration of the blank samples was determined on initiation of the stability test. The HQC samples were prepared by adding a standard solution to the authentic matrix, and the results were calculated by subtracting the endogenous concentration in the blank matrix. Benchtop and long-term stability were evaluated simultaneously with the benchtop stability test carried out at room temperature (approximately 24 °C) for 4 h using samples with long-term stability (stored at −80 °C for 34 days). The post-preparative stability was assessed at 10 °C on an autosampler tray for 21 h. The freeze/thaw stability was evaluated by four cycles of freezing at −80 °C and thawing at room temperature.

[3] = Biological sample stability: post-preparative, autosampler tray; type: physicochemical, minipig; details: for Post-preparative stability (RE), range: 21 h at 10 °C; for Post-preparative stability, RE (%): 10 °C for 21 h, n = 3
Description: as §1, §2

[4] = Biological sample stability: freeze/thaw, four cycles; type: physicochemical, minipig; details: for Freeze/thaw stability, RE (%): four cycles -80 °C/room temperature, n = 3; for Freeze/thaw stability (RE), range: all QC samples of 3′-SL and 6′-SL pooled, four cycles
Description: as §1, §2

[5] = kidney / plasma, read-out: T/P Ratio Kidney/Plasma
[6] = liver / plasma, read-out: T/P Ratio Liver/Plasma
[7] = kidney, read-out: Tissue Concentration Kidney
[8] = liver, read-out: Tissue Concentration Liver
[9] = plasma, read-out: Tissue Concentration Plasma
[10] = kidney, LQC (nominal = background concentration)
[11] = liver, LQC (nominal = background concentration)
[12] = kidney QC samples of 3′-SL and 6′-SL pooled
[13] = liver QC samples of 3′-SL and 6′-SL pooled

For `CC(=O)N[C@H]1[C@H]([C@H](O)[C@H](O)CO)O[C@@](O[C@H]2[C@@H](O)[C@@H](CO)O[C@@H](O[C@H]3[C@H](O)[C@@H](O)[C@H](O)O[C@@H]3CO)[C@@H]2O)(C(=O)O)C[C@@H]1O` [3′-SL, 3′-sialyllactose], the “T/P Ratio Kidney/Plasma” value [1] was 1.0, the “T/P Ratio Liver/Plasma” value [1] was 0.12 and the Kp at 2 h [1, 5] was 1 to 1.3. The Kp at 2 h [1, 6] was 0.12 to 0.14, the concentration at 2 h [1, 7] was 22300 ng/g and the concentration at 2 h [1, 8] was 2550 ng/g. For the same compound, the concentration at 2 h [1, 9] was 21500 ng/g, the “Benchtop and long-term stability, RE (%)” value ([2]; kidney, HQC 15,000 ng/g) was −6.0% and the “Benchtop and long-term stability, RE (%)” value [2, 10] was −9.2%. For the same compound, the “Benchtop and long-term stability values (RE), range” value ([2]; kidney) was −10.1% to −6.0, the “Benchtop and long-term stability, RE (%)” value ([2]; liver, HQC 15,000 ng/g) was −5.3% and the “Benchtop and long-term stability, RE (%)” value [2, 11] was −7.6%. For the same compound, the “Benchtop and long-term stability values (RE), range” value ([2]; liver) was −7.6% to 3.7, the “Post-preparative stability (RE), range” value [3, 12] was −10.2% to 4.7 and the “Post-preparative stability, RE (%)” value ([3]; kidney, HQC 15,000 ng/g) was −3.3%. The “Post-preparative stability, RE (%)” value [3, 10] was −10.2%, the “Post-preparative stability (RE), range” value [3, 13] was “–3.1% to 8.7” and the “Post-preparative stability, RE (%)” value ([3]; liver, HQC 15,000 ng/g) was −2.7%. For the same compound, the “Post-preparative stability, RE (%)” value [3, 11] was −1.3%, the “Freeze/thaw stability, RE (%)” value ([4]; kidney, HQC 15,000 ng/g) was −8.0% and the “Freeze/thaw stability, RE (%)” value [4, 10] was −3.2%. The “Freeze/thaw stability (RE), range” value ([4]; kidney) was −9.3% to −3.2, the “Freeze/thaw stability, RE (%)” value ([4]; liver, HQC 15,000 ng/g) was −6.7% and the “Freeze/thaw stability, RE (%)” value [4, 11] was −5.8%. For the same compound, the “Freeze/thaw stability (RE), range” value ([4]; liver) was −6.7% to 7.6.
With `CC(=O)NC1C(O)CC(OCC2OC(OC3C(CO)OC(O)C(O)C3O)C(O)C(O)C2O)(C(=O)O)OC1C(O)C(O)CO` (stereo not drawn) [6′-SL, 6′-sialyllactose] the “T/P Ratio Kidney/Plasma” value [1] was 1.3, the “T/P Ratio Liver/Plasma” value [1] was 0.14 and the Kp at 2 h [1, 5] was 1 to 1.3. The Kp at 2 h [1, 6] was 0.12 to 0.14, the concentration at 2 h [1, 7] was 27000 ng/g and the concentration at 2 h [1, 8] was 3030 ng/g. For the same compound, the concentration at 2 h [1, 9] was 21000 ng/g, the “Exposure of tissues to 6′-SL higher than that of 3′-SL” value ([1]; liver and kidney, 2 h after i.v. 12.5 mg/kg) was “approximately 20%” and the “Benchtop and long-term stability, RE (%)” value ([2]; kidney, HQC 15,000 ng/g) was −6.7%. For the same compound, the “Benchtop and long-term stability, RE (%)” value [2, 10] was −10.1%, the “Benchtop and long-term stability values (RE), range” value ([2]; kidney) was −10.1% to −6.0 and the “Benchtop and long-term stability, RE (%)” value ([2]; liver, HQC 15,000 ng/g) was −3.3%. For the same compound, the “Benchtop and long-term stability, RE (%)” value [2, 11] was 3.7%, the “Benchtop and long-term stability values (RE), range” value ([2]; liver) was −7.6% to 3.7 and the “Post-preparative stability (RE), range” value [3, 12] was −10.2% to 4.7. For the same compound, the “Post-preparative stability, RE (%)” value ([3]; kidney, HQC 15,000 ng/g) was 4.7%, the “Post-preparative stability, RE (%)” value [3, 10] was 0.5% and the “Post-preparative stability (RE), range” value [3, 13] was “–3.1% to 8.7”. The “Post-preparative stability, RE (%)” value ([3]; liver, HQC 15,000 ng/g) was 8.7%, the “Post-preparative stability, RE (%)” value [3, 11] was −3.1% and the “Freeze/thaw stability, RE (%)” value ([4]; kidney, HQC 15,000 ng/g) was −9.3%. The “Freeze/thaw stability, RE (%)” value [4, 10] was −6.8%, the “Freeze/thaw stability (RE), range” value ([4]; kidney) was −9.3% to −3.2 and the “Freeze/thaw stability, RE (%)” value ([4]; liver, HQC 15,000 ng/g) was −5.3%. For the same compound, the “Freeze/thaw stability, RE (%)” value [4, 11] was 7.6% and the “Freeze/thaw stability (RE), range” value ([4]; liver) was −6.7% to 7.6.
